According to PMC5791972 (PLoS ONE, 2018):
“And” between values parts separate entries of the source, which are not always exact repeats. Identical values can stand only once. Starred links: 1 amine or outer side, 2 acyl side, 3 side chain; linkers in the order of their positions; H or OH if unused. Positions of bridges follow the written chain, without caps; N, C: chain ends. Residues, ends and D or L forms follow the SMILES beside them. X1 = O=C(CC1(S[*:2])CCCCC1)[*:1]

Key:
M3 (h) = M3 (h) (Homo sapiens, UniProt P20309)
Chain of M3 (h) (P20309 whole entry): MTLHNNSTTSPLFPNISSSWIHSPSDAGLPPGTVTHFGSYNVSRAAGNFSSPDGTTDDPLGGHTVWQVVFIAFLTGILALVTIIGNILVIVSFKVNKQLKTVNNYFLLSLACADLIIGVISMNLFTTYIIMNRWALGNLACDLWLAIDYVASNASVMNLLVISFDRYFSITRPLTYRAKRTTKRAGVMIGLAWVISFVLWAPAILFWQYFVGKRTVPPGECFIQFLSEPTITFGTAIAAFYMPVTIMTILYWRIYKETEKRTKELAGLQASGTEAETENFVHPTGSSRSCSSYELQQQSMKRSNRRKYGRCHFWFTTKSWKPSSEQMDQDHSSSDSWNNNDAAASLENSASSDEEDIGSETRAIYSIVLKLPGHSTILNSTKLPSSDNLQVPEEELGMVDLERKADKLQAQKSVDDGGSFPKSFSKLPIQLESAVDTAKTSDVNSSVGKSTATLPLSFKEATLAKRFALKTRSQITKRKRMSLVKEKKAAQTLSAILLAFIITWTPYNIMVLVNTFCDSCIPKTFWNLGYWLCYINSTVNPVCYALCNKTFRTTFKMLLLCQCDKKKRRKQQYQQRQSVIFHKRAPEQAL

M5 (h) = target: T1, M5 (h) (Homo sapiens, UniProt P08912); type: binding
T1 construct: host or cells: CHO cells
T1 sequence (P08912 1-532): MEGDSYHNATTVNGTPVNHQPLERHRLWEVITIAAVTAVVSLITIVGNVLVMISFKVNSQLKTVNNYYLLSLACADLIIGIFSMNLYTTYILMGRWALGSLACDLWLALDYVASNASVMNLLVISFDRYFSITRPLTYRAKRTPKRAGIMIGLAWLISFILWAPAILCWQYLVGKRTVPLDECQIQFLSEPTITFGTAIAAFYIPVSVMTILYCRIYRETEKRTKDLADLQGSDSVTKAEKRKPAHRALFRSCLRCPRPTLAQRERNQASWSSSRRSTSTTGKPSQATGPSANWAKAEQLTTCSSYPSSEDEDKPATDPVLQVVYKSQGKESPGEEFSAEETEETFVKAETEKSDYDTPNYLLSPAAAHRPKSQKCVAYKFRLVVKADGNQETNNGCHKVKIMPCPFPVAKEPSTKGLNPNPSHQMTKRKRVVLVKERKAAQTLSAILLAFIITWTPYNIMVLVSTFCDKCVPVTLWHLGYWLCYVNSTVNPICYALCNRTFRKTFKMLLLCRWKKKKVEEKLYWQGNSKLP

M4 (h) = target: T2, M4 (h) (Homo sapiens, UniProt P08173)
T2 sequence (P08173 1-479): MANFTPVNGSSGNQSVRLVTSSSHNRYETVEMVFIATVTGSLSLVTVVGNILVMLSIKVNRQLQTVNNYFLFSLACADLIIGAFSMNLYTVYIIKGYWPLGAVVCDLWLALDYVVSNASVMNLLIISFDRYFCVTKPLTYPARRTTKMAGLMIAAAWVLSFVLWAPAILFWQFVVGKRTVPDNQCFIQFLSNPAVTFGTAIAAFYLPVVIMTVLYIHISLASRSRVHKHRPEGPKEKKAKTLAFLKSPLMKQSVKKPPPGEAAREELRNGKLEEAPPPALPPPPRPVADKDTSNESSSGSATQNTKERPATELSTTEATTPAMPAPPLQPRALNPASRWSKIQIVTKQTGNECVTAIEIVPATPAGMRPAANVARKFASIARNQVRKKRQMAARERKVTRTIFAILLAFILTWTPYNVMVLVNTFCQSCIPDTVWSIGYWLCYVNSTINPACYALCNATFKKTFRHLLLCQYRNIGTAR

GABAB(1b) (h) = GABAB(1b) (h) (Homo sapiens, UniProt Q9UBS5)
MMP-9 (h) = MMP-9 (h) (Homo sapiens, UniProt P14780); test: biochemical; type: biochemical
Chain of MMP-9 (h) (P14780 94-707): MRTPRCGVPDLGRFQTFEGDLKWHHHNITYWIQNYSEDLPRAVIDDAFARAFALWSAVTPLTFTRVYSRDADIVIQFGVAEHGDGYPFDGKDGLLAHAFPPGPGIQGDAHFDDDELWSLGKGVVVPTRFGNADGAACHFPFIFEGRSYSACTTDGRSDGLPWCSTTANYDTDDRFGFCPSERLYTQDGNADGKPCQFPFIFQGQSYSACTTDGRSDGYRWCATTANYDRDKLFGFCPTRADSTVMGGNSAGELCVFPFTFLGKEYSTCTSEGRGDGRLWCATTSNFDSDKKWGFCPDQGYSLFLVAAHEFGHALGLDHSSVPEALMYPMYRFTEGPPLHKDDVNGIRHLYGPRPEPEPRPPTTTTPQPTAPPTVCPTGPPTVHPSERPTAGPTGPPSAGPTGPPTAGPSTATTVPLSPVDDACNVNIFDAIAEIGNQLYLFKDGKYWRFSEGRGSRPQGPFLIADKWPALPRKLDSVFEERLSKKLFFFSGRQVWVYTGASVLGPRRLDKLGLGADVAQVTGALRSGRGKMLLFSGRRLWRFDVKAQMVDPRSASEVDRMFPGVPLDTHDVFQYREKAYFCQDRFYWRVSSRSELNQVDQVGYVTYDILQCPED

5-HT3 (h) = target: T3, 5-HT3 (h) (Homo sapiens, UniProt P46098)
T3 sequence (P46098 24-478): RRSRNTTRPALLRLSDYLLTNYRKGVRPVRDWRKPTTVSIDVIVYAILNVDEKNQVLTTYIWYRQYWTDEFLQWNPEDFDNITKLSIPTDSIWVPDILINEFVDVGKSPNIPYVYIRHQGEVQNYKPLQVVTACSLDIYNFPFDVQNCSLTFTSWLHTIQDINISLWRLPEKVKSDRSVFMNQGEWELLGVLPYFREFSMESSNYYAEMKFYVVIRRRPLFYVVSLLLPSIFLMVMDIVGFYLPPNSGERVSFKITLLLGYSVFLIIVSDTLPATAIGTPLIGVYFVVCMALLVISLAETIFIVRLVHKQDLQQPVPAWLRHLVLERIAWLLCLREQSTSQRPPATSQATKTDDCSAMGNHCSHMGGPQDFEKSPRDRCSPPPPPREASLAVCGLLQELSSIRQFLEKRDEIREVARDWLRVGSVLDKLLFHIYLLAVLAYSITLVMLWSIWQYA

NMRI mice = test: Locomotor activity; type: in vivo, mouse; conditions: 5 mg/kg subcutaneously
Description: NMRI mice were habituated to their room for at least 2 weeks after the delivery and kept under standard conditions in groups of 4–5 animals per cage. Food and water were available ad libitum.
Spontaneous motility and rearing were measured by an automated system (Coulbourn Instruments, USA). Animals were introduced into transparent square cages (40 cm length) that are equipped with 2 light barrier systems in order to monitor the movements as well as rearing behavior automatically. The movements of the animals were recorded for 30 minutes. At the end of the experiment, the animals were sacrificed via isofluorane inhalation and subsequent decapitation.

p38α kinase (h) = p38α kinase (h) (Homo sapiens, UniProt Q16539); test: enzyme assay; type: biochemical
Chain of p38α kinase (h) (Q16539 whole entry): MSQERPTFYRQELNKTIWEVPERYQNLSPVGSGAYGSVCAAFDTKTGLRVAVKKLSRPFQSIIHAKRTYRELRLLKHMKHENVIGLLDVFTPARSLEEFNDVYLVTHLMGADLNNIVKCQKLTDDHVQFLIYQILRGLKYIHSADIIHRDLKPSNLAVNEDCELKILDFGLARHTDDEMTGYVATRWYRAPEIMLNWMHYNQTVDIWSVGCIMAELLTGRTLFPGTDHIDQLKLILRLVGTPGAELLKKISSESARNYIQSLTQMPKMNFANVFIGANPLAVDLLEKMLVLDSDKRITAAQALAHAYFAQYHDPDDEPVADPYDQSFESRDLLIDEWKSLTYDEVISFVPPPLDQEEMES

V1a (h) = target: T4, V1a (h) (Homo sapiens, UniProt P37288); type: binding
T4 construct: host or cells: CHO cells
T4 sequence (P37288 whole entry): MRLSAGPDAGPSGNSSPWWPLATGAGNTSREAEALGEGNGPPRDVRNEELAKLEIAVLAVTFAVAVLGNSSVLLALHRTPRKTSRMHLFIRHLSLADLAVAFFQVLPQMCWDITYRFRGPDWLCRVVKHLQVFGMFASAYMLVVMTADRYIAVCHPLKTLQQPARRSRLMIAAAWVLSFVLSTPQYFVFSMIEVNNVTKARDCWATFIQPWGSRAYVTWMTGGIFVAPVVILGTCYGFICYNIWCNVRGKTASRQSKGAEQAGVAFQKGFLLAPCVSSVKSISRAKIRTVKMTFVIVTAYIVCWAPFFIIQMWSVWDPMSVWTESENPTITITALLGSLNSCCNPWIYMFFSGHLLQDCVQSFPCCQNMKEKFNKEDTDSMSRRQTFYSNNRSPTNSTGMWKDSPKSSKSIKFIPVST

GR (h) = target: T5, GR (h) (Homo sapiens, UniProt P04150); type: binding
T5 construct: IM-9 cells; host or cells: IM-9 cells (cytosol)
T5 sequence (P04150 whole entry): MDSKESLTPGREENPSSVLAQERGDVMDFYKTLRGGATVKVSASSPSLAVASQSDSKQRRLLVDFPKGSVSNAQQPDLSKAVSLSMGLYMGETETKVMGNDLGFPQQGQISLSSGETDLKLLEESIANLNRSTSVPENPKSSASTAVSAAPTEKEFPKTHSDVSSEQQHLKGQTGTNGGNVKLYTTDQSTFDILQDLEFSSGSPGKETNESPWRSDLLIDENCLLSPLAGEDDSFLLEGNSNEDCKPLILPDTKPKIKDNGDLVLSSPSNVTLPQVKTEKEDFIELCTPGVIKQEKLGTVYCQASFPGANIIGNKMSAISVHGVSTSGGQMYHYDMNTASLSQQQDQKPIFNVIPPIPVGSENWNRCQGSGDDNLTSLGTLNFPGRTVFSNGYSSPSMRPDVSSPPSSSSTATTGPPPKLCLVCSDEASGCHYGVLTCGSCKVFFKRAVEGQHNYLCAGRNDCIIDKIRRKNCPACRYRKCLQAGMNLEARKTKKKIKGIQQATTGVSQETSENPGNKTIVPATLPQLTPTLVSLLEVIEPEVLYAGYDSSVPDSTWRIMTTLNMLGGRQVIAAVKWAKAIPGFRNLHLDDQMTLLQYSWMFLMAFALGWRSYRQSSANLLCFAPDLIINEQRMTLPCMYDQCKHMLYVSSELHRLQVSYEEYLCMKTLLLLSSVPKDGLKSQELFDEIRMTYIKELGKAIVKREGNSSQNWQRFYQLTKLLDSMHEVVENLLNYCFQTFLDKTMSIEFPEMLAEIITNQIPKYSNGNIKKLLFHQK

[1] = target: Ca2+ channel (L, diltiazem site) (benzothiazepines) (Rattus norvegicus, UniProt P22002); type: binding
PDE5 (h) (non-selective) = PDE5 (h) (non-selective) (Homo sapiens, UniProt O76074)
CD-1 mice = test: Forced swim test; conditions: 20 mg/kg IP, 45 min prior, CD-1 mice
5-HT transporter (h) = target: T6, 5-HT transporter (h) (Homo sapiens, UniProt P31645); type: binding
T6 construct: host or cells: CHO cells
T6 sequence (P31645 whole entry): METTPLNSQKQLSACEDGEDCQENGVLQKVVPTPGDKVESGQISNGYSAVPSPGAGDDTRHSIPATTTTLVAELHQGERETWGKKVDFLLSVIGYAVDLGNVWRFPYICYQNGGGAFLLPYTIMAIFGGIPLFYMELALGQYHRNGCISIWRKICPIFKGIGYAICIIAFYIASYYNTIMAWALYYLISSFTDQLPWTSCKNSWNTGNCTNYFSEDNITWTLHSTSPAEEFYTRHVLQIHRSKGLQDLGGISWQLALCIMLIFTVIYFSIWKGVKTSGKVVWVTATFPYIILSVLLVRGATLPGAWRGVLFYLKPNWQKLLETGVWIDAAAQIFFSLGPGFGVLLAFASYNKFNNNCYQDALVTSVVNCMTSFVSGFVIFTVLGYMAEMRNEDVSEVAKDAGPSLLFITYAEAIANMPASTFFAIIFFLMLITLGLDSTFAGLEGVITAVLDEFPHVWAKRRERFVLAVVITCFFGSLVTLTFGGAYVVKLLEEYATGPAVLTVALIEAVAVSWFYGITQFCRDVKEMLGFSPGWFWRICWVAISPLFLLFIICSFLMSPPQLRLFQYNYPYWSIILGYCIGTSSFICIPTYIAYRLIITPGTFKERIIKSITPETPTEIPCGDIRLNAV

5-HT2A (h) = target: T7, 5-HT2A (h) (Homo sapiens, UniProt P28223); type: binding
T7 construct: host or cells: HEK-293 cells

M2 (h) = target: T8, M2 (h) (Homo sapiens, UniProt P08172)
T8 sequence (P08172 1-466): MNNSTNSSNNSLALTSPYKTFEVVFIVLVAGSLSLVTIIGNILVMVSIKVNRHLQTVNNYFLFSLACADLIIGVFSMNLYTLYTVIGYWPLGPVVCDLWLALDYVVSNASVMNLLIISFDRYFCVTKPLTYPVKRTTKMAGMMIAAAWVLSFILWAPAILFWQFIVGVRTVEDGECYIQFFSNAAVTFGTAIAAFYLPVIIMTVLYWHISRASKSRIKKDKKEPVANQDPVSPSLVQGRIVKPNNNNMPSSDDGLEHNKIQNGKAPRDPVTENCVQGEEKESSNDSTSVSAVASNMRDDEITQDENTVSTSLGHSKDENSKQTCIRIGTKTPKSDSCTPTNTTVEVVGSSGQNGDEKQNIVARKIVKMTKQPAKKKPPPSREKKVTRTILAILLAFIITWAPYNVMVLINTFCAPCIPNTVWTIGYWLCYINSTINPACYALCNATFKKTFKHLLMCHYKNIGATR

PDE3A (h) = PDE3A (h) (Homo sapiens, UniProt Q14432); test: biochemical
ATPase (Na+/K+) = test: enzyme assay; type: biochemical, porcine
[2] = target: T9, FLT-1 kinase (h) (VEGFR1) (Homo sapiens, UniProt P17948); test: enzyme assay; type: biochemical
T9 construct: host or cells: Sf9 cells
T9 sequence (P17948 27-1338): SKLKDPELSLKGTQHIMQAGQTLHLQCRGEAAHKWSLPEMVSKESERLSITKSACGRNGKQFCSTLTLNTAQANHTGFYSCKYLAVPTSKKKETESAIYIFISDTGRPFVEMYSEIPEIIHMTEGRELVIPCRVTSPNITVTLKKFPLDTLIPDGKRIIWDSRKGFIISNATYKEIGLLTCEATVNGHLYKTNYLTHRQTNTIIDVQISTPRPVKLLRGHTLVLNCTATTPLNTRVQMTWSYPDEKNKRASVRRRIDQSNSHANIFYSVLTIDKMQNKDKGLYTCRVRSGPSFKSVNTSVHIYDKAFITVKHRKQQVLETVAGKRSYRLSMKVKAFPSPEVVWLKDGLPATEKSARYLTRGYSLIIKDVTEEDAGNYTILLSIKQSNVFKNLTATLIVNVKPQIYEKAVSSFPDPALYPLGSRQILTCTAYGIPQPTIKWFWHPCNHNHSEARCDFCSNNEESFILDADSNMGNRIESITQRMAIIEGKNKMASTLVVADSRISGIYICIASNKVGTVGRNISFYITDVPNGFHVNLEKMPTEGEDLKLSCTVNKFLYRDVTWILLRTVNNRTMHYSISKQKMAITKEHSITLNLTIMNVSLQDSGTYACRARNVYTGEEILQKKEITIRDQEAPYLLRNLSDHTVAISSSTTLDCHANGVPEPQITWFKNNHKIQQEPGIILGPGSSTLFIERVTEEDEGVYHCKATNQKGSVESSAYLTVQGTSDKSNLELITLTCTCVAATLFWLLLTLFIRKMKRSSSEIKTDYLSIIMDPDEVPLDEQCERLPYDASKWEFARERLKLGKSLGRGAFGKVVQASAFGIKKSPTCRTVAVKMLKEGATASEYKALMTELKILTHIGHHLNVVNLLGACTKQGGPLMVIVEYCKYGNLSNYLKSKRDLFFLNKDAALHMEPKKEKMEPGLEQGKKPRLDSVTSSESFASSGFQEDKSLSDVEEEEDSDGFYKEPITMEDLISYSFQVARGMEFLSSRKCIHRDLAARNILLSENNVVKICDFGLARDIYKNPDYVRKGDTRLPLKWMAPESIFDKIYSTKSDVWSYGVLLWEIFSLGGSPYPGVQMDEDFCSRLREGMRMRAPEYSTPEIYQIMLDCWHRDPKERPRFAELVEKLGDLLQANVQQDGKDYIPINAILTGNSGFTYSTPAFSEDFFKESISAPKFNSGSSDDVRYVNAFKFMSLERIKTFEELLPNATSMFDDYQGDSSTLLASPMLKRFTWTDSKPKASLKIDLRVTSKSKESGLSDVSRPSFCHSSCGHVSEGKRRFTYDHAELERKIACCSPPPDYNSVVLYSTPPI

ZAP70 kinase (h) = target: T10, ZAP70 kinase (h) (Homo sapiens, UniProt P43403); test: biochemical
T10 construct: host or cells: insect cells
T10 sequence (P43403 1-619): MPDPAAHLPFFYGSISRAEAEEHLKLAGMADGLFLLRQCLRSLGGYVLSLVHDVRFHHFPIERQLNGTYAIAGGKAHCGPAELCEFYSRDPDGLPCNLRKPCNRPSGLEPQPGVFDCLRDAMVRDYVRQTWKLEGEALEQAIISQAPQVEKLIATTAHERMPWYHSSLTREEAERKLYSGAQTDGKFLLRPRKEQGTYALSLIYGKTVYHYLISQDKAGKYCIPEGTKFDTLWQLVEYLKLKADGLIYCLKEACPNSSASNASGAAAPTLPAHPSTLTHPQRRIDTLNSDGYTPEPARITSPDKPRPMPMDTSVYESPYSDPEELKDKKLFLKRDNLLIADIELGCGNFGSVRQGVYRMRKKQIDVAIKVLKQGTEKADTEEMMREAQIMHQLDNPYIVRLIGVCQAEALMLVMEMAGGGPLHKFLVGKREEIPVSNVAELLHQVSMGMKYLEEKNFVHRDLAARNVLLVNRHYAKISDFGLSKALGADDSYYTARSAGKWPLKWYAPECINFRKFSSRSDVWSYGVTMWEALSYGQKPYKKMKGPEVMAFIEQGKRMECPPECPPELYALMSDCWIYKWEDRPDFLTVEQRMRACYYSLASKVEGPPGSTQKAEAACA

Ca2+ channel (N) = Ca2+ channel (N) (Rattus norvegicus, UniProt Q02294); test: biochemical; type: binding
D2S (h) = D2S (h) (Homo sapiens, UniProt P14416)

Compound: C[N+]1(C)CCC(OC(=O)C(c2ccccc2)c2ccccc2)CC1.[I-] [4-DAMP, reference compound]
- nH (M3 (h)): 1.2
- IC50 (M5 (h)): 0.76 nM and 0.45 nM
- Ki (M5 (h)): 0.38 nM and 0.22 nM
- nH (M5 (h)): 0.8
- nH (M4 (h)): 0.8

Compound: C[C@H](NC[C@H](O)CP(=O)(O)CC1CCCCC1)c1ccc(Cl)c(Cl)c1 [CGP 54626]
- nH (GABAB(1b) (h)): 0.9

Compound: CNC(=O)[C@H](Cc1c[nH]c2ccccc12)NC(=O)[C@@H](CC(=O)NO)CC(C)C [GM6001, reference compound]
- nH (MMP-9 (h)): 1.6

Compound: CN1[C@@H]2CC[C@H]1C[C@@H](OC(=O)c1cc(Cl)cc(Cl)c1)C2 [MDL 72222]
- nH (5-HT3 (h)): 1.1

Compound: c1ccc(C2(N3CCCCC3)CCCCC2)cc1 [PCP, Phencyclidine, reference compound]
- locomotor activity (NMRI mice): substantially increased activity

Compound: Oc1ccc(-c2nc(-c3ccncc3)c(-c3ccc(F)cc3)[nH]2)cc1 [SB202190, reference compound]
- nH (p38α kinase (h)): 1.4

Compound: COc1ccc(C[C@@H]2NC(=O)CC3(CCCCC3)SSC[C@@H](C(=O)N3CCC[C@H]3C(=O)N[C@@H](CCCNC(=N)N)C(=O)NCC(N)=O)NC(=O)[C@H](CC(N)=O)NC(=O)[C@H](CCC(N)=O)NC(=O)[C@H](Cc3ccccc3)NC2=O)cc1 [[d(CH2)51,Tyr(Me)2]-AVP, reference compound] (Y(Me)FQNCPRG-NH2; linker N-5 via X1 (inferred))
- nH (V1a (h)): 0.9

Compound: C[C@@H]1C[C@H]2[C@@H]3CCC4=CC(=O)C=C[C@]4(C)[C@@]3(F)[C@@H](O)C[C@]2(C)[C@@]1(O)C(=O)CO [dexamethasone]
- nH (GR (h)): 1.1

Compound: COc1ccc([C@@H]2Sc3ccccc3N(CCN(C)C)C(=O)[C@@H]2OC(C)=O)cc1 [diltiazem, reference compound]
- nH [1]: 1.2

Compound: OCCN(CCO)c1nc(N2CCCCC2)c2nc(N(CCO)CCO)nc(N3CCCCC3)c2n1 [dipyridamole]
- nH (PDE5 (h) (non-selective)): 1.7 and 1.0

Compound: CN(C)CCCN1c2ccccc2CCc2ccccc21 [imipramine, reference compound]
- immobility time (CD-1 mice): decreased immobility time
- nH (5-HT transporter (h)): 0.9

Compound: O=C(c1ccc(F)cc1)C1CCN(CCn2c(=O)[nH]c3ccccc3c2=O)CC1 [ketanserin, reference compound]
- nH (5-HT2A (h)): 1.4

Compound: COc1ccccc1CNCCCCCCNCCCCCCCCNCCCCCCNCc1ccccc1OC [methoctramine]
- nH (M2 (h)): 0.9

Compound: Cc1[nH]c(=O)c(C#N)cc1-c1ccncc1 [milrinone, reference compound]
- nH (PDE3A (h)): 1.0

Compound: C[C@@H]1O[C@@H](O[C@H]2C[C@@H](O)[C@]3(CO)[C@H]4[C@H](O)C[C@]5(C)[C@@H](C6=CC(=O)OC6)CC[C@]5(O)[C@@H]4CC[C@]3(O)C2)[C@H](O)[C@H](O)[C@H]1O [ouabain, reference compound]
- IC50 (ATPase (Na+/K+)): 1200 nM

Compound: CN[C@@H]1C[C@H]2O[C@@](C)([C@@H]1OC)n1c3ccccc3c3c4c(c5c6ccccc6n2c5c31)C(=O)NC4 [staurosporine, reference compound]
- nH [2]: 1.4
- nH (ZAP70 kinase (h)): 1.2

Compound: C[C@@H](O)[C@@H]1NC(=O)[C@H](Cc2ccc(O)cc2)NC(=O)[C@@H]2C[C@@H](O)CN2C(=O)[C@H](CC(N)=O)NC(=O)[C@@H]2CSSC[C@@H]3NC(=O)[C@H](CO)NC(=O)[C@H](CO)NC(=O)CNC(=O)[C@@H]4C[C@@H](O)CN4C(=O)[C@H](CO)NC(=O)[C@H](CCCCN)NC(=O)[C@@H](N)CSSC[C@H](NC(=O)[C@H](CSSC[C@@H](C(=O)N[C@@H](Cc4ccc(O)cc4)C(N)=O)NC(=O)[C@H](CCCN=C(N)N)NC(=O)[C@H](CCCCN)NC1=O)NC(=O)[C@H](CC(N)=O)NC(=O)[C@H](Cc1ccc(O)cc1)NC(=O)[C@H](CO)NC(=O)[C@H]([C@@H](C)O)NC(=O)[C@@H]1C[C@@H](O)CN1C(=O)[C@H](CO)NC3=O)C(=O)N[C@@H](CCCN=C(N)N)C(=O)N[C@@H](CO)C(=O)N2 [ω-conotoxin GVIA, reference compound]
- IC50 (Ca2+ channel (N)): 0.0012 nM

Compound: (+)butaclamol
- nH (D2S (h)): 1.1
